target: T1, TPM3-TRKA fusion protein (Homo sapiens, UniProt P04629); assay: TPM3-TRKA fusion protein levels in KM12 cells (Western blot); type: cell-based; settings: 16 h; TPM3-TRKA degradation in KM12 cells at 10 nM compound, category of percentage degradation; read-out: Degradation (at 10 nM)
T1 construct: The resulted chimeric proteins always retain the kinase domain of TRK proteins; TPM3 (fusion partner, N-terminal part of tropomyosin alpha-3, P06753); endogenous in cells; host or cells: KM12 colon cancer cells; the other entry of the earlier key: TPM3 (P06753, Tropomyosin alpha-3 chain)
Description: KM12 cells were treated with DMSO or indicated compounds at 100 nM for 16 hours.
KM12 cells were treated with DMSO or indicated compounds at 0. 1 nM, 1 nM or 10 nM for 16 hours.
KM12 cells were treated with DMSO or indicated compounds at various concentrations for 16 hours.
KM12 cells were treated with DMSO or indicated compounds at various concentrations for 4 hours.
KM12 cells (a cancer model comprising a colon cancer cell line) were treated with DMSO or indicated compounds at various concentrations for 4 hours.
KM12 cells were treated with heterobifunctional compounds or their corresponding control compounds at 10 nM or 100 nM for 16 hours.
KM12 cells were treated with heterobifunctional compounds or their corresponding control compounds at 0.4-30 nM for 8-16 hours. […] Cells were authenticated using the short tandem repeat (STR) assays. […] Stable cell lines were established by lentivirus transduction, selected and maintained in medium containing 1 μg/mL puromycin (Beyotime Biotechnology).
Cultured cells were washed with cold PBS once and lysed in cold RIPA buffer supplemented with protease inhibitors and phosphatase inhibitors (Beyotime Biotechnology). The solutions were then incubated at 4° C. for 30 minutes with gentle agitation to fully lyse cells. For tumor tissues, tumors were cut into small pieces, milled with cold RIPA buffer using a mechanical homogenizer and lysed for 1 hour at 4° C. Cell lysates were centrifuged at 13,000 rpm for 10 minutes at 4° C. and pellets were discarded. Total protein concentrations in the lysates were determined by BCA assays (Beyotime Biotechnology). Cell lysates were mixed with Laemmli loading buffer to 1× and heated at 99° C. for 5 min. Proteins were resolved on SDS-PAGE and visualized by chemiluminescence. Images were taken by a ChemiDoc MP Imaging system (Bio-Rad). Protein bands were quantitated using the software provided by Bio-Rad.

T1 sequence (P04629 with tags, fused parts or gaps): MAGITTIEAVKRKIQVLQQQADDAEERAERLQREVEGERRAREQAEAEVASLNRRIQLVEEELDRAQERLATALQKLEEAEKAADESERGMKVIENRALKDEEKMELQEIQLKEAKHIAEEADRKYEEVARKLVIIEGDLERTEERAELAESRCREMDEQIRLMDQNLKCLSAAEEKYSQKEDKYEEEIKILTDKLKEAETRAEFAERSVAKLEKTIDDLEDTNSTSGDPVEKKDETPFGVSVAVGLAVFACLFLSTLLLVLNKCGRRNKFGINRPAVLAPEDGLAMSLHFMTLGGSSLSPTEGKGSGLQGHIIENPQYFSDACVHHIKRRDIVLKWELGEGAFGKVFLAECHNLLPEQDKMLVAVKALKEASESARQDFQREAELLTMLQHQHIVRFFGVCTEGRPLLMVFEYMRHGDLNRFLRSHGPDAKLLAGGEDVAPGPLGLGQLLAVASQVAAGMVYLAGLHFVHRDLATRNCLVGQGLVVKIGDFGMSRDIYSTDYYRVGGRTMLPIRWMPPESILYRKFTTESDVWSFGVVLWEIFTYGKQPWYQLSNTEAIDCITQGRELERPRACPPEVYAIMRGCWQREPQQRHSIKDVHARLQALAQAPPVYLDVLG

percent degradation of TPM3-TRKA protein at 0.01 µM	Compound
> 80%	O=C1CCC(N2C(=O)c3cccc(NCCOCCOCCC(=O)N4CCN(c5cccc(-c6cnc7ccc(N8CCC[C@@H]8c8cccc(F)c8)nn67)n5)CC4)c3C2=O)C(=O)N1 (stereo partly drawn) [CPD-028, 2-(2,6-Dioxopiperidin-3-yl)-4-((2-(2-(3-(4-(6-(6-((R)-2-(3-fluorophenyl)pyrrolidin-1-yl)imidazo[1,2-b]pyridazin-3-yl)pyridin-2-yl)piperazin-1-yl)-3-oxopropoxy)ethoxy)ethyl)amino) isoindoline-1,3-dione]
> 80%	O=C1CCC(N2C(=O)c3cccc(NCCOCCC(=O)N4CCN(c5ccc(C(=O)Nc6n[nH]c7ccc(Cc8cc(F)cc(F)c8)cc67)c(NC6CCOCC6)c5)CC4)c3C2=O)C(=O)N1 (stereo not shown) [CPD-030, N-(5-(3,5-Difluorobenzyl)-1H-indazol-3-yl)-4-(4-(3-(2-((2-(2,6-dioxopiperidin-3-yl)-1,3-dioxoisoindolin-4-yl)amino)ethoxy)propanoyl)piperazin-1-yl)-2-((tetrahydro-2H-pyran-4-yl)amino)benzamide]
> 80%	O=C1CCC(N2C(=O)c3cccc(NCCOCCOCCOCCOCCC(=O)N4CCN(c5ccc(C(=O)Nc6n[nH]c7ccc(Cc8cc(F)cc(F)c8)cc67)c(NC6CCOCC6)c5)CC4)c3C2=O)C(=O)N1 (stereo not shown) [CPD-031, N-(5-(3,5-Difluorobenzyl)-1H-indazol-3-yl)-4-(4-(1-((2-(2,6-dioxopiperidin-3-yl)-1,3-dioxoisoindolin-4-yl)amino)-3,6,9,12-tetraoxapentadecan-15-oyl)piperazin-1˜yl)-2-((tetrahydro-2H-pyran-4-yl)amino)benzamide]
> 80%	O=C1CCC(N2C(=O)c3cccc(NCCOCCOCCC(=O)N4CCN(c5ccc(C(=O)Nc6n[nH]c7ccc(Cc8cc(F)cc(F)c8)cc67)c(NC6CCOCC6)c5)CC4)c3C2=O)C(=O)N1 (stereo not drawn) [CPD-032, N—(S-(3,5-Difluorobenzyl)-1H-indazol-3-yl)-4-(4-(3-(2-(2-((2-(2,6-dioxopiperidin-3-yl)-1,3-dioxoisoindolin-4-yl)amino)ethoxy)ethoxy)propanoyl)piperazin-1-yl)-2-((tetrahydro-2H-pyran-4-yl)amino)benzamide]
> 80%	Cc1ncsc1-c1ccc(CNC(=O)[C@@H]2C[C@@H](O)CN2C(=O)[C@@H](NC(=O)CCCCCCC(=O)N2CCN(c3ccc(C(=O)Nc4n[nH]c5ccc(Cc6cc(F)cc(F)c6)cc45)c(NC4CCOCC4)c3)CC2)C(C)(C)C)cc1 [CPD-033, (2S,4R)-1-((S)-2-(8-(4-(4-((5-(3,5-Difluorobenzyl)-1H-indazol-3-yl)carbamoyl)-3-((tetrahydro-2H-pyran-4-yl)amino)phenyl)piperazin-1-yl)-8-oxooctanamido)-3,3-dimethylbutanoyl)-4-hydroxy-N-(4-(4-methylthiazol-5-yl)benzyl)pyrrolidine-2-carboxamide]
< 50%	Cc1ncsc1-c1ccc(CNC(=O)[C@@H]2C[C@@H](O)CN2C(=O)[C@@H](NC(=O)CCCCCCCCC(=O)N2CCN(c3ccc(C(=O)Nc4n[nH]c5ccc(Cc6cc(F)cc(F)c6)cc45)c(NC4CCOCC4)c3)CC2)C(C)(C)C)cc1 [CPD-034, (28,4R)-1-((S)-2-(10-(4-(4-((5-(3,5-Difluorobenzyl)-1H-indazol-3-yl)carbamoyl)-3-((tetrahydro-2H-pyran-4-yl)amino)phenyl)piperazin-1-yl)-10-oxodecanamido)-3,3-dimethylbutanoyl)-4-hydroxy-N-(4-(4-methylthiazol-5-yl)benzyl)pyrrolidine-2-carboxamide]
50 to 80%	Cc1ncsc1-c1ccc(CNC(=O)[C@@H]2C[C@@H](O)CN2C(=O)[C@@H](NC(=O)CCCCCCCC(=O)N2CCN(c3ccc(C(=O)Nc4n[nH]c5ccc(Cc6cc(F)cc(F)c6)cc45)c(NC4CCOCC4)c3)CC2)C(C)(C)C)cc1 [CPD-037, (25,4R)-1-((S)-2-(9-(4-(4-((5-(3,5-Difluorobenzyl)-1H-indazol-3-yl)carbamoyl)-3-((tetrahydro-2H-pyran-4-yl)amino)phenyl)piperazin-1-yl)-9-oxononanamido)-3,3-dimethylbutanoyl)-4-hydroxy-N-(4-(4-methylthiazol-S-yl)benzyl)pyrrolidine-2-carboxamide]
< 50%	Cc1ncsc1-c1ccc(CNC(=O)[C@@H]2C[C@@H](O)CN2C(=O)[C@@H](NC(=O)CCOCCOCCOCCC(=O)N2CCN(c3ccc(C(=O)Nc4n[nH]c5ccc(Cc6cc(F)cc(F)c6)cc45)c(NC4CCOCC4)c3)CC2)C(C)(C)C)cc1 [CPD-039, (28,4R)-1-((S)-2-(tert-butyl)-16-(4-(4-((5-(3,5-Difluorobenzyl)-1H-indazol-3-yl)carbamoyl)-3-((tetrahydro-2H-pyran-4-yl)amino)phenyl)piperazin-1-yl)-4,16-dioxo-7,10,13-trioxa-3-azahexadecanoyl)-4-hydroxy-N-(4-(4-methylthiazol-5-yl)benzyl)pyrrolidine-2-carboxamide]

The remaining lines, values behind:

Compound	percent degradation of TPM3-TRKA protein at 0.01 µM
O=C1CCC(N2C(=O)c3cccc(NCC(=O)N4CCN(c5cccc(-c6cnc7ccc(N8CCC[C@@H]8c8cccc(F)c8)nn67)n5)CC4)c3C2=O)C(=O)N1 (stereo partly drawn) [CPD-023, 2-(2,6-Dioxopiperidin-3-yl)-4-((2˜ (4-(6-(6-((R)-2-(3-fluorophenyl)pyrrolidin-1-yl)imidazo[1,2-b]pyridazin-3-yl)pyridin-2-yl)piperazin-1-yl)-2-oxoethyl)amino) isoindoline-1,3-dione]	> 80%
O=C1CCC(N2C(=O)c3cccc(NCCCCCCCC(=O)N4CCN(c5cccc(-c6cnc7ccc(N8CCC[C@@H]8c8cccc(F)c8)nn67)n5)CC4)c3C2=O)C(=O)N1 (stereo partly drawn) [CPD-024, 2-(2,6-Dioxopiperidin-3-yl)-4-((8-(4-(6-(6-((R)-2-(3-fluorophenyl)pyrrolidin-1-yl)imidazo[1,2-b]pyridazin-3-yl)pyridin-2-yl)piperazin-1-yl)-8-oxooctyl)amino) isoindoline-1,3-dione]	> 80%
O=C1CCC(N2C(=O)c3cccc(NCCOCCOCCOCCOCCOCCC(=O)N4CCN(c5cccc(-c6cnc7ccc(N8CCC[C@@H]8c8cccc(F)c8)nn67)n5)CC4)c3C2=O)C(=O)N1 (stereo partly drawn) [CPD-025, 2-(2,6-Dioxopiperidin-3-yl)-4-((18-(4-(6-(6-((R)-2-(3-fluorophenyl)pyrrolidin-1-yl)imidazo[1,2-b]pyridazin-3-yl)pyridin-2-yl)piperazin-1-yl)-18-oxo-3,6,9,12,15-pentaoxaoctadecyl)amino) isoindoline-1,3-dione]	> 80%
O=C1CCC(N2C(=O)c3cccc(NCCC(=O)N4CCN(c5cccc(-c6cnc7ccc(N8CCC[C@@H]8c8cccc(F)c8)nn67)n5)CC4)c3C2=O)C(=O)N1 (stereo partly drawn) [CPD-026, 2-(2,6-Dioxopiperidin-3-yl)-4-((3-(4-(6-(6-((R)-2-(3-fluorophenyl)pyrrolidin-1-yl)imidazo[1,2-b]pyridazin-3-yl)pyridin-2-yl)piperazin-1-yl)-3-oxopropyl)amino) isoindoline-1,3-dione]	50 to 80%
O=C1CCC(N2C(=O)c3cccc(NCCOCCC(=O)N4CCN(c5cccc(-c6cnc7ccc(N8CCC[C@@H]8c8cccc(F)c8)nn67)n5)CC4)c3C2=O)C(=O)N1 (stereo partly drawn) [CPD-027, 2-(2,6-Dioxopiperidin-3-yl)-4˜ ((2-(3-(4˜ (6-(6-((R)-2-(3-fluorophenyl)pyrrolidin-1-yl)imidazo[1,2-b]pyridazin-3-yl)pyridin-2-yl)piperazin-1-yl)-3-oxopropoxy)ethyl)amino) isoindoline-1,3-dione]	> 80%
Cc1ncsc1-c1ccc(CNC(=O)[C@@H]2C[C@@H](O)CN2C(=O)[C@@H](NC(=O)CCCCCCC(=O)N2CCN(c3cccc(-c4cnc5ccc(N6CCC[C@@H]6c6cccc(F)c6)nn45)n3)CC2)C(C)(C)C)cc1 [CPD-029, (25,4R)-1-((S)-2-(8-(4-(6-(6-((R)-2-(3-Fluorophenyl)pyrrolidin-1-yl)imidazo[1,2-b]pyridazin-3-yl)pyridin-2-yl)piperazin-1-yl)-8-oxooctanamido)-3,3-dimethylbutanoyl)-4-hydroxy-N-(4-(4-methylthiazol-5-yl)benzyl)pyrrolidine-2-carboxamide]	50 to 80%
Cc1ncsc1-c1ccc(CNC(=O)[C@@H]2C[C@@H](O)CN2C(=O)[C@@H](NC(=O)CCCCCCCCCC(=O)N2CCN(c3ccc(C(=O)Nc4n[nH]c5ccc(Cc6cc(F)cc(F)c6)cc45)c(NC4CCOCC4)c3)CC2)C(C)(C)C)cc1 [CPD-035, (25,4R)-1-((S)-2-(11-(4-(4-((5-(3,5-Difluorobenzyl)-1H-indazol-3-yl)carbamoyl)-3-((tetrahydro-2H-pyran-4-yl)amino)phenyl)piperazin-1-yl)-11-oxoundecanamido)-3,3-dimethylbutanoyl)-4-hydroxy-N-(4-(4-methylthiazol-5-yl)benzyl)pyrrolidine-2-carboxamide]	< 50%

same assay, conditions: KM12 cells, 100 nM, indicated incubation time, Western blot (FIG. 2)

TPM3-TRKA protein levels	Compound
rapidly reduced TPM3-TRKA protein levels	O=C1CCC(N2C(=O)c3cccc(NCCOCCC(=O)N4CCN(c5cccc(-c6cnc7ccc(N8CCC[C@@H]8c8cccc(F)c8)nn67)n5)CC4)c3C2=O)C(=O)N1 (stereo partly drawn) [CPD-027, 2-(2,6-Dioxopiperidin-3-yl)-4˜ ((2-(3-(4˜ (6-(6-((R)-2-(3-fluorophenyl)pyrrolidin-1-yl)imidazo[1,2-b]pyridazin-3-yl)pyridin-2-yl)piperazin-1-yl)-3-oxopropoxy)ethyl)amino) isoindoline-1,3-dione]
